# Assay results: the supplement of paper PMC10307832
# Compound: COC1=C(C=C(C=C1)C2=CC3=NC=CN3C(=N2)NC4=C(C=CC=N4)C(=O)N)OC [BAY61-3606] + CC(=O)Nc1cccc(-n2c(=O)n(C3CC3)c(=O)c3c(Nc4ccc(I)cc4F)n(C)c(=O)c(C)c32)c1 [Trametinib] (partner 0.02 µM)
# Experiment: relative viability (nuclei count vs DMSO), 5 days (fraction); higher = more cells survive
# Details: first compound 0.2 µM
# In short: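 Five library-drug doses in √10 steps were combined with a fixed anchor-drug dose, or a single drug was given alone, by pin tool to lung cancer cell lines in 1536-well plates the day after seeding. Nuclei were stained and counted after 5 days. Relative viability is the nuclei count in treated wells over that in vehicle wells, taken as the median of duplicate plates.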
row,Cell Line,relative viability
1,NCI-H2126,0.514
2,NCI-H1648,0.546
3,NCI-H1793,0.449
4,H3255,0.598
5,COR-L23,0.635
6,COR-L 105,0.463
7,LC-2-ad,0.979
8,LU99A,0.534
9,NCI-H358,0.143
10,NCI-H522,0.818
11,NCI-H1395,0.964
12,CAL-12T,0.346
13,NCI-H1944,0.405
14,NCI-H2170,0.907
15,SK-MES-1,0.518

# Same assay, conditions: first compound 0.6325 µM
row,Cell Line,relative viability
1,NCI-H2342,0.712
2,RERF-LC-KJ,0.866
3,NCI-H1651,0.844
4,NCI-H1734,0.671
5,NCI-H2009,0.303
6,NCI-H596,1.01
7,SK-LU-1,0.532
8,SW 1573,0.578
9,LCLC-97TM1,0.187
10,NCI-H661,0.633
11,NCI-H2228,0.531
12,EMC-BAC-2,1.17
13,NCI-H2087,0.178
14,HCC-44,1.07
15,NCI-H727,0.42
16,LK-2,0.915

row,Cell Line,relative viability
1,NCI-H2126,0.567
2,NCI-H1793,0.437
3,H3255,0.715
4,COR-L23,0.751
5,COR-L 105,0.429
6,LC-2-ad,0.942
7,LU99A,0.503
8,NCI-H358,0.146
9,NCI-H522,0.764
10,SW 900,0.87
11,NCI-H1395,1.02
12,CAL-12T,0.347
13,NCI-H1944,0.369
14,NCI-H2170,0.916
15,SK-MES-1,0.579

# Same assay, conditions: first compound 2 µM
row,Cell Line,relative viability
1,NCI-H2342,0.953
2,RERF-LC-KJ,0.676
3,NCI-H1651,0.762
4,NCI-H1734,0.568
5,NCI-H2009,0.206
6,NCI-H596,0.696
7,SK-LU-1,0.406
8,SW 1573,0.341
9,LCLC-97TM1,0.205
10,NCI-H661,0.541
11,NCI-H2228,0.365
12,EMC-BAC-2,1.05
13,NCI-H2087,0.2
14,HCC-44,1.2
15,NCI-H727,0.387
16,LK-2,0.683

row,Cell Line,relative viability
1,NCI-H2126,0.57
2,NCI-H1648,0.512
3,NCI-H1793,0.478
4,H3255,0.587
5,COR-L23,0.558
6,COR-L 105,0.436
7,LC-2-ad,0.902
8,LU99A,0.47
9,NCI-H358,0.0995
10,NCI-H522,0.688
11,SW 900,0.585
12,NCI-H1395,0.95
13,CAL-12T,0.229
14,NCI-H1944,0.299
15,NCI-H2170,0.762
16,SK-MES-1,0.503
